Assay type in all cases: in vivo
One series has as its system kidney bean leaves. In words: Phytotoxicity evaluation of kidney bean leaves after Test Example 2. As for the experimental part: (§1) Kidney bean leaves were cut into squares that measured 2.5 cm on one side, and the cut leaves were placed on absorbent cotton moistened with water. Ten first instar larvae of Thrips palmi were released thereon. 30 mL of the agricultural composition diluted 500 times with water was sprayed on the kidney bean leaves using a hand spray. After air drying, the larvae were kept in a constant temperature chamber at 25° C. One day after the treatment, life and death was observed, and the death rate was calculated. In addition, the state of the kidney bean leaves after the test was observed, and the phytotoxicity was also evaluated.
Evaluation Criteria for Phytotoxicity
• −: No change on the leaf surface • ±: Slight damage is recognized on the leaf surface • +: Damage is recognized on part of the leaf surface • ++: Damage is recognized on the entire surface of the leaf surface

The subject of the next series is Thrips palmi. In words: Biological Test Example 2: test for controlling Thrips palmi (leaf spray). Particulars: first instar larvae; composition diluted 500 times with water, 30 mL sprayed on kidney bean leaves, 25° C., one day after the treatment. As to the method:
as §1

Another series deals with Tetranychus urticae. Nature of the series: Biological Test Example 1: test for controlling Tetranychus urticae (leaf spray). Particulars: composition diluted 1000 times with water, 30 mL sprayed on kidney bean leaves, 25° C., two days after the treatment. As for the experimental part: Kidney bean leaves were cut into squares that measured 2.5 cm on one side, and the cut leaves were placed on absorbent cotton moistened with water. Ten Tetranychus urticae […] were released thereon. 30 mL of each agricultural composition diluted 1000 times with water was sprayed on the kidney bean leaves by using a hand spray. After air drying, the bean leaves were transferred into a plastic cup and stored in a constant temperature chamber at 25° C. Two days after the treatment, the life and death of the imagoes was observed, and the death rate was calculated.

As to `CCCCCCCCCCCCN1CCCC1=O` [Comparative Example 8, N-lauryl-2-pyrrolidone], the “Test Example 2 Leaf shape phytotoxicity” value in the series with kidney bean leaves (in vivo) is reported as “+++”. The compound also gave a Test Example 2 Thrip larvae (death rate) with Thrips palmi of 100%. In the series with Tetranychus urticae, this compound yielded a Test Example 1 Spider mite imagoes (death rate) of 100%.
“Diglycerin monocaprylic acid ester [Comparative Example 1]”: the “Test Example 2 Leaf shape phytotoxicity” value with kidney bean leaves (in vivo) is “−”. In addition, the Test Example 2 Thrip larvae (death rate) in the series on Thrips palmi stood at 20%. The compound further registered a Test Example 1 Spider mite imagoes (death rate) in the series on Tetranychus urticae of 60%.
Take “N,N-dimethyl fatty acid (C8-10) amide [Comparative Example 4]”: the “Test Example 2 Leaf shape phytotoxicity” value with kidney bean leaves (in vivo) is on record as “++”.
As to “N,N-dimethyl fatty acid (C12-14) amide [Comparative Example 6]”, the “Test Example 2 Leaf shape phytotoxicity” value in the series with kidney bean leaves (in vivo) was “+++”.
As for “Propylene glycol monolauric acid ester [Comparative Example 3]”, the “Test Example 2 Leaf shape phytotoxicity” value in the series with kidney bean leaves (kidney bean leaves after the test, composition diluted 500 times with water) was “−”. Besides, the Test Example 2 Thrip larvae (death rate) in the series with Thrips palmi came out at 50%. The same compound came in with a Test Example 1 Spider mite imagoes (death rate) in the series with Tetranychus urticae of 100%.
Take “Sorbitan monolauric acid ester [Comparative Example 2]”: the “Test Example 2 Leaf shape phytotoxicity” value in the series with kidney bean leaves (in vivo) is recorded as “−”. In the series with Thrips palmi, this compound came in with a Test Example 2 Thrip larvae (death rate) of 20%. In the series with Tetranychus urticae, this compound returned a Test Example 1 Spider mite imagoes (death rate) of 0%.
